Results on 13 compounds are retold here after PubChem BioAssay (NCI).

What all share (test): NCI tumour cell line growth inhibition, 48 h
Assay [1] concerns 786-0 renal.
Assay [2] relates to ACHN renal.
Assay [3] has as its system DMS 273 small cell lung.
For assay [4], the system named is HCT-116 colon.
The subject of assay [5] is HS 578T breast.
The test system of assay [6] is KM20L2 colon.
Assay [7] concerns M14 melanoma.
The test system of assay [8] is NCI-H460 lung.
Assay [9] relates to PC-3 prostate.
For assay [10], the system named is SN12C renal.
The subject of assay [11] is SNB-78 CNS.
The test system of assay [12] is SW-620 colon.
Assay [13] has as its system HL-60(TB) leukemia.
The test system of assay [14] is SR leukemia.

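In this assay, cells in 96-well plates receive the compound at five concentrations for 48 hours. Endpoints are linearly interpolated between the surrounding concentrations. Abbreviation: GI50, concentration required for 50% inhibition of growth. At the TGI there is no net growth.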

For the compound `C=C1C(=O)OC2/C=C(\CO)C3OC3C3OC3(C)CC(OC(=O)/C(=C/C)COC(C)=O)C12` (stereo not drawn), the TGI was found to be 5.36 µM in assay [1]; 9.68 µM in assay [2]; 10.5 µM in [3]; 2.96 µM in assay [4]; 20.4 µM in [5]; 20.5 µM in assay [6]. The TGI came out at 6.64 µM in assay [7]; 28.4 µM in assay [8]; 27 µM in assay [9]; 10.9 µM in [10]; 13.4 µM in assay [11]; 2.8 µM in assay [12].

Consider `O=C1Nc2ccccc2C1(O)Cc1ccccn1` (stereo not drawn), for which the TGI in assay [1], in assay [2], in [4], in assay [13], in assay [5] and in assay [7] was more than 100 µM throughout. For the same compound, the TGI in assay [8], in assay [9], in assay [10], in assay [14] and in assay [12] was more than 100 µM in each case.

Regarding `CSc1nc2c(ncn2C2OC(CO)C(O)C(O)C2O)c(=O)n1C` (stereo not drawn), the TGI in [3], in assay [4], in [13], in [6], in assay [8] and in assay [10] was more than 100 µM in each case. The TGI in [11] and in assay [12] was more than 100 µM throughout.

For `COc1ccc2[nH]c(=O)cc(C)c2c1[N+](=O)[O-]`, the TGI in [1], in assay [2], in [3], in [4], in assay [13] and in [6] was more than 100 µM throughout. Besides, the TGI in [7], in assay [8], in assay [10], in [11] and in assay [12] was more than 100 µM each time.

Take `C=CCn1c(C)nc2cc(Nc3nc(N4CCCC4)nc4nc[nH]c34)ccc21`: the GI50 in assay [2] was more than 100 µM; in [13], more than 100 µM; in assay [7], 29.6 µM; in [9], more than 100 µM. The TGI in assay [2], in assay [13], in [7] and in [9] was more than 100 µM each time.

As for `O=c1c2cc([N+](=O)[O-])ccc2[nH]n1Cc1ccccc1Cl`, the TGI in assay [1], in assay [2], in [4], in [13], in assay [5] and in assay [7] was more than 100 µM each time. Also, the TGI in assay [8], in assay [9], in [10], in [14] and in [12] was more than 100 µM each time.

In the case of `Nc1nc2cc(COc3ccc(C(=O)O)cc3)ccc2nc1-c1ccccc1`, the TGI in [2], in assay [13], in assay [5], in [7], in assay [8] and in assay [9] was more than 10 µM each time. The TGI in [10], in [14] and in [12] was more than 10 µM throughout.

Consider `Cc1c2cnccc2c(C)c2c1c1ccccc1n2CCCCCCCl`, for which the TGI was more than 50 µM in [3]; more than 50 µM in assay [4]; 40.6 µM in [13]; more than 50 µM in assay [6]; more than 50 µM in [8]; more than 50 µM in assay [10]. The TGI is 49.8 µM in [11] and more than 50 µM in assay [12].

For the compound `CC1=CC2=C(C=O)C(=O)[C@](C)(O)[C@@H](O)C2=CO1`, the TGI in [3] is more than 90.2 µM; in assay [4], more than 59.9 µM; in [8], more than 100 µM; in [10] it was more than 100 µM; in assay [11], more than 100 µM; in [12], more than 77.6 µM.

As for `CS(C)(=O)=Nn1c(=O)n2n(c1=O)[C@H]1CC[C@@H]2C1`, the TGI in assay [2], in [13], in assay [5], in assay [7], in assay [8] and in [9] was more than 100 µM in each case. Moreover, the TGI in assay [14] and in assay [12] was more than 100 µM throughout.

On to `COc1cc(C2c3cc4c(cc3[C@@H](Nc3cnc5ccccc5c3)C3COC(=O)[C@H]23)OCO4)cc(OC)c1O` (stereo partly drawn), for which the TGI is 1.34 µM in assay [3]; 2.26 µM in [4]; 0.377 µM in assay [13]; 0.397 µM in assay [8]; more than 100 µM in [11].

Take `O=C(N/N=C/c1cc(Cl)cc(Cl)c1[O-])c1ccccc1O.O=C(N/N=C/c1cc(Cl)cc(Cl)c1[O-])c1ccccc1O.[Mn+2]`: the TGI in [2] turned out to be 11.9 µM; in assay [4], 13.8 µM; in [13], 0.404 µM; in assay [7] it was 2.51 µM; in assay [14], 0.832 µM; in assay [12], 17.7 µM. Also, the GI50 in assay [4] is 0.423 µM; in assay [6] it was 2.78 µM.

For `O=C1Sc2sc(=S)sc2SC1c1ccccc1` (stereo not drawn), the TGI in assay [3] is more than 100 µM; in assay [4], more than 100 µM; in assay [13], more than 31.6 µM; in [6] it was more than 100 µM; in assay [8] it was more than 100 µM; in assay [10], more than 100 µM. Further, the TGI in [11] was more than 75.8 µM; in assay [12], 39.3 µM.
